In ChEMBL document CHEMBL1201862, “PubChem BioAssay data set” (2004):
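These data come from cells grown in 96-well plates and exposed to compound for 48 hours at five concentrations. GI50 = concentration required for 50% inhibition of growth.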 The source made the active and inactive calls. Cut-off read from the data, not from the text of the source: active = GI50 up to about 1.1 µM and inactive = higher. Where a SMILES comes first, the peptide text is derived from it. The star is where a group is joined. Cbz = O=C(OCc1ccccc1)*; Bn = c1ccc(C*)cc1

Experiments:
Assay in all cases: NCI anticancer screen, dose series, 48 h
[1] = test system: PC-3
[2] = test system: MCF7
[3] = test system: HCC 2998
[4] = test system: Hs-578T
[5] = test system: NCI/ADR-RES
[6] = test system: SK-MEL-2
[7] = test system: CAKI-1
[8] = test system: MDA-N
[9] = test system: 786-0
[10] = test system: T47D
[11] = test system: NCI-H226
[12] = test system: COLO 205
[13] = test system: MDA-MB-231
[14] = test system: MDA-MB-435
[15] = test system: DU-145
[16] = test system: HOP-92
[17] = test system: SR
[18] = test system: OVCAR-4
[19] = test system: OVCAR-5

| SMILES | GI50 [1] | GI50 [2] | GI50 [3] | GI50 [4] | GI50 [5] | GI50 [6] | GI50 [7] | GI50 [8] | GI50 [9] | GI50 [10] | GI50 [11] | GI50 [12] | GI50 [13] | GI50 [14] | GI50 [15] | GI50 [16] | GI50 [17] | GI50 [18] | GI50 [19] |
| --- | --- | --- | --- | --- | --- | --- | --- | --- | --- | --- | --- | --- | --- | --- | --- | --- | --- | --- | --- |
| O=Cc1cccc2ccc3ccccc3c12 | 9.59 µM (inactive) | 14.4 µM (inactive) | 26.2 µM (inactive) | 13.5 µM (inactive) | 8.45 µM (inactive) | 15.1 µM (inactive) | 16.1 µM (inactive) | 21.6 µM (inactive) | 17.5 µM (inactive) | 15 µM (inactive) | 24.7 µM (inactive) | 18.7 µM (inactive) | 17 µM (inactive) | 18.4 µM (inactive) | 22.4 µM (inactive) | – | – | – | – |
| Cc1ccc(S(=O)(=O)NCCSCCNS(=O)(=O)c2ccc(C)cc2)cc1 | > 100 µM (inactive) | > 100 µM (inactive) | > 100 µM (inactive) | > 100 µM (inactive) | > 100 µM (inactive) | – | – | > 100 µM (inactive) | – | > 100 µM (inactive) | > 100 µM (inactive) | > 100 µM (inactive) | > 100 µM (inactive) | > 100 µM (inactive) | > 100 µM (inactive) | > 100 µM (inactive) | > 100 µM (inactive) | > 100 µM (inactive) | – |
| COc1cc(OC)c2nc(C)c3c(c2c1)OCC3 | > 100 µM (inactive) | > 100 µM (inactive) | > 100 µM (inactive) | 47.4 µM (inactive) | > 100 µM (inactive) | > 100 µM (inactive) | 19.8 µM (inactive) | > 100 µM (inactive) | 61.1 µM (inactive) | > 100 µM (inactive) | > 100 µM (inactive) | > 100 µM (inactive) | 12.6 µM (inactive) | > 100 µM (inactive) | > 100 µM (inactive) | 40.6 µM (inactive) | > 100 µM (inactive) | > 100 µM (inactive) | > 100 µM (inactive) |
| CC(C)(C)c1cc(C(=O)/C=C/c2ccc(C(=O)O)cc2)cc(C(C)(C)C)c1 | 4.48 µM (inactive) | 3.87 µM (inactive) | 1.82 µM (inactive) | 1.42 µM (inactive) | 2.42 µM (inactive) | 2.94 µM (inactive) | 3.86 µM (inactive) | 2.32 µM (inactive) | 4.09 µM (inactive) | 5.56 µM (inactive) | 1.53 µM (inactive) | 2.12 µM (inactive) | 3.87 µM (inactive) | 2.16 µM (inactive) | 2.77 µM (inactive) | 6.68 µM (inactive) | 2.4 µM (inactive) | 6.14 µM (inactive) | 4.9 µM (inactive) |
| CC1(c2nc3ccccc3[nH]2)CCC(CO)C(C)(C)O1 (stereo not drawn) | > 100 µM (inactive) | > 100 µM (inactive) | > 100 µM (inactive) | > 100 µM (inactive) | > 100 µM (inactive) | > 100 µM (inactive) | > 100 µM (inactive) | > 100 µM (inactive) | > 100 µM (inactive) | > 100 µM (inactive) | > 100 µM (inactive) | > 100 µM (inactive) | > 100 µM (inactive) | > 100 µM (inactive) | > 100 µM (inactive) | > 100 µM (inactive) | 16.1 µM (inactive) | > 100 µM (inactive) | > 100 µM (inactive) |
| S=C(NCCc1ccccn1)N/N=C(\c1ccccc1)c1ccccn1 | 0.0583 µM (active) | < 0.01 µM (active) | 12.1 µM (inactive) | 20.5 µM (inactive) | 0.0933 µM (active) | 21.5 µM (inactive) | < 0.01 µM (active) | 8.2 µM (inactive) | 1.47 µM (inactive) | < 0.0444 µM (active) | – | < 0.01 µM (active) | 0.0247 µM (active) | 5.86 µM (inactive) | 3.4 µM (inactive) | 1.63 µM (inactive) | 1.36 µM (inactive) | 3.01 µM (inactive) | 7.82 µM (inactive) |
| O=C(O)CN1C(=O)OC(c2ccccc2)C1=O (stereo not drawn) | > 100 µM (inactive) | > 100 µM (inactive) | – | > 100 µM (inactive) | > 100 µM (inactive) | > 100 µM (inactive) | > 100 µM (inactive) | > 100 µM (inactive) | > 100 µM (inactive) | > 100 µM (inactive) | > 100 µM (inactive) | > 100 µM (inactive) | > 100 µM (inactive) | > 100 µM (inactive) | > 100 µM (inactive) | > 100 µM (inactive) | > 100 µM (inactive) | > 100 µM (inactive) | > 100 µM (inactive) |
| CN1CCc2c(sc3nc(S)nc(S)c23)C1 | > 100 µM (inactive) | > 100 µM (inactive) | – | > 100 µM (inactive) | > 100 µM (inactive) | > 100 µM (inactive) | > 100 µM (inactive) | > 100 µM (inactive) | > 100 µM (inactive) | > 100 µM (inactive) | > 100 µM (inactive) | > 100 µM (inactive) | 39.5 µM (inactive) | > 100 µM (inactive) | > 100 µM (inactive) | > 100 µM (inactive) | > 100 µM (inactive) | > 100 µM (inactive) | > 100 µM (inactive) |
| CCCCN(CC)c1nc(C)nc2c1c(C)c(C)n2-c1c(C)cc(C)cc1C [ANTALARMIN] | 13.5 µM (inactive) | – | – | 16.9 µM (inactive) | 13.6 µM (inactive) | 12.9 µM (inactive) | 13.9 µM (inactive) | 20.1 µM (inactive) | 16.5 µM (inactive) | 10.7 µM (inactive) | 14.8 µM (inactive) | 15.6 µM (inactive) | 14.2 µM (inactive) | 17.1 µM (inactive) | 16.6 µM (inactive) | 9.35 µM (inactive) | 8.45 µM (inactive) | 16.3 µM (inactive) | 15.3 µM (inactive) |
| Cc1ccc(/N=N/c2c(O)c(C(=O)Nc3ccccc3)cc3ccccc23)c([N+](=O)[O-])c1 | > 100 µM (inactive) | – | – | > 100 µM (inactive) | > 100 µM (inactive) | > 100 µM (inactive) | > 100 µM (inactive) | > 100 µM (inactive) | > 100 µM (inactive) | > 100 µM (inactive) | – | > 100 µM (inactive) | > 100 µM (inactive) | > 100 µM (inactive) | > 100 µM (inactive) | > 100 µM (inactive) | – | > 100 µM (inactive) | > 100 µM (inactive) |
| Cc1ccc(-c2c(C#N)c(N)nc3c2CCS(=O)(=O)c2ccccc2-3)cc1 | 78.9 µM (inactive) | – | > 100 µM (inactive) | 58.1 µM (inactive) | 85.9 µM (inactive) | 49.1 µM (inactive) | > 100 µM (inactive) | > 100 µM (inactive) | 44.2 µM (inactive) | 55.5 µM (inactive) | 66.1 µM (inactive) | > 100 µM (inactive) | > 100 µM (inactive) | > 100 µM (inactive) | 74.6 µM (inactive) | 34.1 µM (inactive) | – | 40.6 µM (inactive) | – |
| N/C(S)=N/N=C/c1ccc(O)cn1 | 7.1 µM (inactive) | 3.18 µM (inactive) | 13.6 µM (inactive) | 316 µM (inactive) | 4.01 µM (inactive) | – | – | 8.45 µM (inactive) | – | 4.72 µM (inactive) | 24.2 µM (inactive) | – | 18.5 µM (inactive) | 10.5 µM (inactive) | 2.96 µM (inactive) | 4.68 µM (inactive) | 1.64 µM (inactive) | – | 45 µM (inactive) |
| COc1ccc(N2C(=O)c3c4c(c5c([nH]c6ncccc65)c3C2=O)CCC(C(C)(C)C)C4)cc1 (stereo not drawn) | > 100 µM (inactive) | > 100 µM (inactive) | > 100 µM (inactive) | 28.8 µM (inactive) | > 100 µM (inactive) | – | – | > 100 µM (inactive) | 35.6 µM (inactive) | > 100 µM (inactive) | > 100 µM (inactive) | > 100 µM (inactive) | > 100 µM (inactive) | > 100 µM (inactive) | > 100 µM (inactive) | – | > 100 µM (inactive) | > 100 µM (inactive) | – |
| COC(=O)C(Cc1ccc(O)cc1)NC(=O)C(COCc1ccccc1)NC(=O)OCc1ccccc1 (stereo not drawn) (Cbz-Ser(Bn)-Tyr-OMe; configuration not given here) | 19.1 µM (inactive) | 19.3 µM (inactive) | 4.06 µM (inactive) | 24.6 µM (inactive) | 19.6 µM (inactive) | 23 µM (inactive) | 20.2 µM (inactive) | 17.6 µM (inactive) | – | 17.7 µM (inactive) | 20.1 µM (inactive) | 17.1 µM (inactive) | 18.8 µM (inactive) | 19.1 µM (inactive) | 17.3 µM (inactive) | 25.5 µM (inactive) | > 100 µM (inactive) | 19.4 µM (inactive) | 19.8 µM (inactive) |
| COCCOc1nc(-c2ccccc2)nc2ccccc12 | 34.5 µM (inactive) | 37.2 µM (inactive) | – | 28.8 µM (inactive) | 32.6 µM (inactive) | 51.8 µM (inactive) | 34.7 µM (inactive) | 32.5 µM (inactive) | – | 27.7 µM (inactive) | – | 32.6 µM (inactive) | 31 µM (inactive) | 52.4 µM (inactive) | 54.7 µM (inactive) | 27.6 µM (inactive) | 19.7 µM (inactive) | 37.3 µM (inactive) | > 100 µM (inactive) |
| Cn1c(=O)c2c(nc(Cc3ccccc3)n2CC(=O)O)n(C)c1=O | > 100 µM (inactive) | – | > 100 µM (inactive) | > 100 µM (inactive) | > 100 µM (inactive) | > 100 µM (inactive) | > 100 µM (inactive) | > 100 µM (inactive) | > 100 µM (inactive) | > 100 µM (inactive) | > 100 µM (inactive) | – | > 100 µM (inactive) | > 100 µM (inactive) | > 100 µM (inactive) | > 100 µM (inactive) | – | > 100 µM (inactive) | > 100 µM (inactive) |
